Laboratory results as given in patent publication US8541588B2, “Sulfonamide derivatives” (Pfizer Limited, priority 2009, dated 2013).

biological target: T1, Nav1.7 (or SCN9A) channel; HEK cells stably transfected with hSCN9A (Homo sapiens, UniProt Q15858); experiment: Nav1.7 block, PatchXpress 7000 automated whole-cell voltage clamp, estimated IC50 (EIC50); assay type: cell-based; conditions: PatchXpress platform; hSCN9A HEK cells held at V1/2 of inactivation; estimated IC50
T1 construct: expressed in transfected cells
T1 sequence (Q15858 whole entry): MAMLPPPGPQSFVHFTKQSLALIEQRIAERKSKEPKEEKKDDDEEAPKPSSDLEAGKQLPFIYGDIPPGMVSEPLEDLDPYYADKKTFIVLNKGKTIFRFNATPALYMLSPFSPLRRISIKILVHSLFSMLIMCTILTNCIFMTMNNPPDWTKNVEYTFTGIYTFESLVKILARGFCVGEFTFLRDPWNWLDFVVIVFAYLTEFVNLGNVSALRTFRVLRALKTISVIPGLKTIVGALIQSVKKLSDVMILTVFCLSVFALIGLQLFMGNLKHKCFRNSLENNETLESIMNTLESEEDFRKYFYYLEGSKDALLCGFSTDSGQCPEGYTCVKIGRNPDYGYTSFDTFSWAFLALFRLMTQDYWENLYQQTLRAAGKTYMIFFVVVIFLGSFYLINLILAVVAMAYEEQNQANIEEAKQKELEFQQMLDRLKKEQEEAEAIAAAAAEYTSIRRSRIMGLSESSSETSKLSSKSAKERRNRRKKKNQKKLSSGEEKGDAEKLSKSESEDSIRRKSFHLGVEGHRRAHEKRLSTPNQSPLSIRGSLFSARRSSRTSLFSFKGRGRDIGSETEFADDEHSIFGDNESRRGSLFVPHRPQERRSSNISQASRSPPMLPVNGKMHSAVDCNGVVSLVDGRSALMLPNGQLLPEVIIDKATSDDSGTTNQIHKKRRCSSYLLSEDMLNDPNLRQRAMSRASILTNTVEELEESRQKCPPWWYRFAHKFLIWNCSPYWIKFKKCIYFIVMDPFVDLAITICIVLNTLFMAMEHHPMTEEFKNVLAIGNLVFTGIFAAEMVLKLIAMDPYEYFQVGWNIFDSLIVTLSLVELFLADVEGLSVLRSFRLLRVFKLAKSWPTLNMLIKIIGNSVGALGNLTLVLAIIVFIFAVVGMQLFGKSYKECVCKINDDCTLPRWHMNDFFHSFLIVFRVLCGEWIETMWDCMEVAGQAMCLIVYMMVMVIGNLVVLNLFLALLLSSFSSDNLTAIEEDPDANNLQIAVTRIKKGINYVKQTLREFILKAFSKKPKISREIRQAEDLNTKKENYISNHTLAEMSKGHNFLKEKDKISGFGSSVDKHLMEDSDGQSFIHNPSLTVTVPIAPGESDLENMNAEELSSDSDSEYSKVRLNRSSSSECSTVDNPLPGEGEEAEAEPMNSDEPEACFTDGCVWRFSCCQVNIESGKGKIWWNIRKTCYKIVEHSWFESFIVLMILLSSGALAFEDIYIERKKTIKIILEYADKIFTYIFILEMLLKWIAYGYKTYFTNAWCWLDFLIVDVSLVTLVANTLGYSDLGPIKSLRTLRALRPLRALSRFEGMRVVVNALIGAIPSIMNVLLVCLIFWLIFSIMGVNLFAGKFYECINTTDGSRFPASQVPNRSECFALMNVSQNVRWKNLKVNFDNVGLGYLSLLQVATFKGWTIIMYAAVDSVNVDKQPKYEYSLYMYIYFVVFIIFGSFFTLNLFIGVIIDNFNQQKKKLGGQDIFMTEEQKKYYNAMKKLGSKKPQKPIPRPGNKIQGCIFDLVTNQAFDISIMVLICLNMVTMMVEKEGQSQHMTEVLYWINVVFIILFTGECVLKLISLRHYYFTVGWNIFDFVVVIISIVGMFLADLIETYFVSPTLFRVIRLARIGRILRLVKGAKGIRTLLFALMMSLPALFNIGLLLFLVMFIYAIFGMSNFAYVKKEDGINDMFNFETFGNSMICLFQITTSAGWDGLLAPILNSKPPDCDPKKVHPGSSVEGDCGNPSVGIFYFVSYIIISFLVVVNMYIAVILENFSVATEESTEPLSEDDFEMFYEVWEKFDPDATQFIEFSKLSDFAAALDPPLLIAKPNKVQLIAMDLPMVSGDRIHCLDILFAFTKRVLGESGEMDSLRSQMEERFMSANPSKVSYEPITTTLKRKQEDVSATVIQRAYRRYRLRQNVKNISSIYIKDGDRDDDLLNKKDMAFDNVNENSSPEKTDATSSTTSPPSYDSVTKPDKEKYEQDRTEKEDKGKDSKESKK

| Compound | IC50 |
| --- | --- |
| Cc1cccc(-c2cc(F)ccc2F)c1Oc1ccc(S(=O)(=O)Nc2ncns2)cc1C#N [Example 31, 3-cyano-4-[(2′,5′-difluoro-3-methylbiphenyl-2-yl)oxy]-N-1,2,4-thiadiazol-5-ylbenzenesulfonamide] | 16200 nM |
| N#Cc1cc(S(=O)(=O)Nc2ncns2)ccc1Oc1cnc(N)nc1-c1ccc(Cl)cc1 [Example 18, 4-{[2-amino-4-(4-chlorophenyl)pyrimidin-5-yl]oxy}-3-cyano-N-1,2,4-thiadiazol-5-ylbenzenesulfonamide] | >10000 nM |
| N#Cc1cc(S(=O)(=O)Nc2nccs2)ccc1Oc1ccc(F)cc1-c1cccc(CO)c1 [Example 161, 3-cyano-4-{[5-fluoro-3′-(hydroxymethyl)biphenyl-2-yl]oxy}-N-1,3-thiazol-2-ylbenzenesulfonamide] | 70 nM |
| N#Cc1cc(S(=O)(=O)Nc2nccs2)ccc1Oc1ccccc1-c1nnco1 [Example 173, 4-(2-(1,3,4-oxadiazol-2-yl)phenoxy)-3-cyano-N-(thiazol-2-yl)benzenesulfonamide] | 2090 nM |
| COc1cc(S(=O)(=O)Nc2ncns2)ccc1Oc1ccccc1-c1ccccc1 [Example 262, 4-(biphenyl-2-yloxy)-3-methoxy-N-1,2,4-thiadiazol-5-ylbenzenesulfonamide] | 1320 nM |
| N#Cc1cc(S(=O)(=O)Nc2ncns2)ccc1Oc1ccccc1Oc1ccncc1 [Example 63, 3-cyano-4-[2-(pyridin-4-yloxy)phenoxy]-N-1,2,4-thiadiazol-5-ylbenzenesulfonamide] | 2350 nM |
| N#Cc1cc(S(=O)(=O)Nc2ncns2)ccc1Oc1cccnc1-c1ccccc1 [Example 22, 3-cyano-4-[(2-phenylpyridin-3-yl)oxy]-N-1,2,4-thiadiazol-5-ylbenzenesulfonamide] | 3140 nM |

same assay, conditions: estimated IC50; hSCN9A HEK cells, PatchXpress platform; Examples 283-814

| Compound | IC50 |
| --- | --- |
| Cc1ccc(-c2ccnn2C)c(Oc2ccc(S(=O)(=O)Nc3nccs3)cc2C#N)c1 [Example 543, 3-cyano-4-[5-methyl-2-(1-methyl-1H-pyrazol-5-yl)phenoxy]-N-1,3-thiazol-2-ylbenzenesulfonamide] | 66 nM |
| N#Cc1cc(S(=O)(=O)Nc2ccc(F)cn2)ccc1Oc1ccc(C(F)(F)F)cc1-c1cn[nH]c1 [Example 315, 3-cyano-N-(5-fluoropyridin-2-yl)-4-[2-(1H-pyrazol-4-yl)-4-(trifluoromethyl)phenoxy]benzenesulfonamide] | 1200 nM |
| CCn1nc(C(F)(F)F)cc1-c1ccc(Oc2ccc(S(=O)(=O)Nc3ncc(F)cn3)cc2C#N)cc1 [Example 338, 3-cyano-4-{4-[1-ethyl-3-(trifluoromethyl)-1H-pyrazol-5-yl]phenoxy}-N-(5-fluoropyrimidin-2-yl)benzenesulfonamide] | 1800 nM |
| N#Cc1cc(S(=O)(=O)Nc2nccs2)ccc1Oc1ccc(Cl)cc1CN1CCC(F)(F)C1 [Example 360, 4-{4-chloro-2-[(3,3-difluoropyrrolidin-1-yl)methyl]phenoxy}-3-cyano-N-1,3-thiazol-2-ylbenzenesulfonamide] | 330 nM |
| N#Cc1cc(S(=O)(=O)Nc2ncns2)ccc1Oc1cc(F)c(Cl)cc1-c1ccn[nH]1 [Example 763, 4-[4-chloro-5-fluoro-2-(1H-pyrazol-5-yl)phenoxy]-3-cyano-N-1,2,4-thiadiazol-5-ylbenzenesulfonamide] | 34 nM |
| N#Cc1cc(S(=O)(=O)Nc2ncns2)ccc1Oc1ccccc1-c1cn[nH]c1 [Example 385, 4-(2-(1H-pyrazol-4-yl)phenoxy)-3-cyano-N-(1,2,4-thiadiazol-5-yl)benzenesulfonamide] | 67 nM |
| Cn1nc(C(F)(F)F)cc1-c1cccc(Oc2ccc(S(=O)(=O)Nc3nccs3)cc2C#N)c1F [Example 527, 3-cyano-4-{2-fluoro-3-[1-methyl-3-(trifluoromethyl)-1H-pyrazol-5-yl]phenoxy}-N-1,3-thiazol-2-ylbenzenesulfonamide] | 140 nM |
| CCn1nc(C(F)(F)F)cc1-c1ccc(Oc2cc(F)c(S(=O)(=O)Nc3ccc(F)cn3)cc2Cl)cc1 [Example 404, 5-chloro-4-{4-[1-ethyl-3-(trifluoromethyl)-1H-pyrazol-5-yl]phenoxy}-2-fluoro-N-(5-fluoropyridin-2-yl)benzenesulfonamide] | 1200 nM |
| N#Cc1cc(S(=O)(=O)Nc2nccs2)ccc1Oc1ccc(Cl)cc1CN1CCC(F)(F)CC1 [Example 358, 4-{4-chloro-2-[(4,4-difluoropiperidin-1-yl)methyl]phenoxy}-3-cyano-N-1,3-thiazol-2-ylbenzenesulfonamide] | 360 nM |
| Cc1cc(-c2ccccc2Oc2ccc(S(=O)(=O)Nc3ccc(F)cn3)cc2C#N)sn1 [Example 571, 3-cyano-N-(5-fluoropyridin-2-yl)-4-[2-(3-methylisothiazol-5-yl)phenoxy]benzenesulfonamide] | 10000 nM |
| Cn1nccc1-c1cc(Cl)ccc1Oc1ccc(S(=O)(=O)Nc2ccncn2)cc1F [Example 670, 4-[4-Chloro-2-(1-methyl-1H-pyrazol-5-yl)phenoxy]-3-fluoro-N-pyrimidin-4-ylbenzenesulfonamide] | 350 nM |
| COc1cc(Oc2ccc(S(=O)(=O)Nc3ccc(F)cn3)cc2C#N)ccc1-n1cccn1 [Example 579, 3-cyano-N-(5-fluoropyridin-2-yl)-4-[3-methoxy-4-(1H-pyrazol-1-yl)phenoxy]benzenesulfonamide] | >3000 nM |
| N#Cc1cc(S(=O)(=O)Nc2cscn2)ccc1Oc1ccc(Cl)cc1-c1ccnn1C1CNC1 [Example 809, 4-[2-(1-azetidin-3-yl-1H-pyrazol-5-yl)-4-chlorophenoxy]-3-cyano-N-1,3-thiazol-4-ylbenzenesulfonamide] | 38 nM |
| O=S(=O)(Nc1ncns1)c1ccc(Oc2ccc(Cl)cc2-c2cn[nH]c2)c(Cl)c1 [Example 724, 3-chloro-4-[4-chloro-2-(1H-pyrazol-4-yl)phenoxy]-N-1,2,4-thiadiazol-5-ylbenzenesulfonamide] | 1.7 nM |
| Cn1nc(C(F)(F)F)cc1-c1cc(F)c(F)c(Oc2ccc(S(=O)(=O)Nc3nccs3)cc2C#N)c1 [Example 472, 3-cyano-4-{2,3-difluoro-5-[1-methyl-3-(trifluoromethyl)-1H-pyrazol-5-yl]phenoxy}-N-1,3-thiazol-2-ylbenzenesulfonamide] | 970 nM |
| Cn1nc(C(F)(F)F)cc1-c1ccc(Oc2ccc(S(=O)(=O)Nc3nccs3)cc2C#N)cc1F [Example 329, 3-cyano-4-{3-fluoro-4-[1-methyl-3-(trifluoromethyl)-1H-pyrazol-5-yl]phenoxy}-N-1,3-thiazol-2-ylbenzenesulfonamide] | 340 nM |
| N#Cc1cc(S(=O)(=O)Nc2nccs2)ccc1Oc1cccc(-n2cccn2)c1 [Example 319, 3-cyano-4-[3-(1H-pyrazol-1-yl)phenoxy]-N-1,3-thiazol-2-ylbenzenesulfonamide] | 2500 nM |
| N#Cc1ccnc(NS(=O)(=O)c2ccc(Oc3ccccc3-c3ccccc3)c(C#N)c2)n1 [Example 433, 4-(biphenyl-2-yloxy)-3-cyano-N-(4-cyanopyrimidin-2-yl)benzenesulfonamide] | 15000 nM |

same assay, conditions: estimated IC50; hSCN9A HEK cells, PatchXpress platform; Examples 815-1040

| Compound | IC50 |
| --- | --- |
| O=S(=O)(Nc1ncns1)c1cc(F)c(Oc2ccc(C(F)(F)F)cc2-c2cccnn2)cc1F [Example 920, 2,5-difluoro-4-[2-pyridazin-3-yl-4-(trifluoromethyl)phenoxy]-N-1,2,4-thiadiazol-5-ylbenzenesulfonamide] | 310 nM |
| N#Cc1cc(S(=O)(=O)Nc2cscn2)ccc1Oc1ccc(OC(F)(F)F)cc1-c1ccnn1C1CNC1 [Example 962, 4-[2-(1-azetidin-3-yl-1H-pyrazol-5-yl)-4-(trifluoromethoxy)phenoxy]-3-cyano-N-1,3-thiazol-4-ylbenzenesulfonamide] | 9.9 nM |
| N#Cc1cc(S(=O)(=O)Nc2ncns2)ccc1Oc1cc(F)c(OC(F)(F)F)cc1-c1ccnnc1 [Example 958, 3-cyano-4-[5-fluoro-2-pyridazin-4-yl-4-(trifluoromethoxy)phenoxy]-N-1,2,4-thiadiazol-5-ylbenzenesulfonamide] | 5.9 nM |
| N#Cc1cc(S(=O)(=O)Nc2nncs2)ccc1Oc1ccc(Cl)cc1-c1cc(N2CCOCC2)ncn1 [Example 876, 4-[4-chloro-2-(6-morpholin-4-ylpyrimidin-4-yl)phenoxy]-3-cyano-N-1,3,4-thiadiazol-2-ylbenzenesulfonamide] | >1000 nM |
| O=S(=O)(Nc1ncns1)c1cc(F)c(Oc2ccc(OC(F)F)cc2-c2cn[nH]c2)cc1F [Example 837, 4-[4-(difluoromethoxy)-2-(1H-pyrazol-4-yl)phenoxy]-2,5-difluoro-N-1,2,4-thiadiazol-5-ylbenzenesulfonamide] | 5.8 nM |
| O=C(c1cccc(-c2cc(Cl)ccc2Oc2cc(F)c(S(=O)(=O)Nc3ncns3)cc2F)c1)N1CCC1 [Example 855, 4-{[3′-(azetidin-1-ylcarbonyl)-5-chlorobiphenyl-2-yl]oxy}-2,5-difluoro-N-1,2,4-thiadiazol-5-ylbenzenesulfonamide] | 4.2 nM |
| N#Cc1cc(S(=O)(=O)Nc2ncns2)ccc1Oc1ccc(Cl)cc1-c1cc(N2CCOCC2)ncn1 [Example 896, 4-[4-chloro-2-(6-morpholin-4-ylpyrimidin-4-yl)phenoxy]-3-cyano-N-1,2,4-thiadiazol-5-ylbenzenesulfonamide] | 340 nM |
| Nc1cc(-c2cc(Cl)ccc2Oc2cc(F)c(S(=O)(=O)Nc3cnccn3)cc2Cl)ccn1 [Example 918, 4-[2-(2-aminopyridin-4-yl)-4-chlorophenoxy]-5-chloro-2-fluoro-N-pyrazin-2-ylbenzenesulfonamide] | 140 nM |
| O=S(=O)(Nc1cscn1)c1cc(F)c(Oc2ccc(Cl)cc2-c2ccnc(CN3CCC3)c2)cc1F [Example 1032, 4-{2-[2-(Azetidin-1-ylmethyl)pyridin-4-yl]-4-chlorophenoxy}-2,5-difluoro-N-1,3-thiazol-4-ylbenzenesulfonamide] | 13 nM |
| Nc1cc(-c2cc(F)ccc2Oc2cc(F)c(S(=O)(=O)Nc3ncns3)cc2Cl)[nH]n1 [Example 840, 4-[2-(3-amino-1H-pyrazol-5-yl)-4-fluorophenoxy]-5-chloro-2-fluoro-N-1,2,4-thiadiazol-5-ylbenzenesulfonamide] | 52 nM |
